One data set concerns HepG2 cells. Put plainly: Estimation of cellular ATP levels in HepG2 cells (BioVision kit). Particulars: 24 hr treatment, amount of each test substance as in the group name (Table 1/3). The class given is cell-based, human. As to the method:
In vitro evaluation of the modulatory potential of the test substances on cellular ATP levels in (HepG2) human Hepatocellular carcinoma cell line.
(§1) About 10 mg of all the test substances were dissolved separately with 1 ml DMEM-HG supplemented with 2% inactivated FBS to obtain a stock solution of 10 mg/ml concentration and sterilized by 0.22u syringe filtration. Diluted the stock to desired concentration for carrying out further studies.
(§2) Cell line HepG2 was procured from NCCS (National Center for Cell Sciences), Pune, and was cultured in DMEM-HG supplemented with 10% inactivated Fetal Bovine Serum (FBS), penicillin (100 IU/ml), streptomycin (100 μg/ml) and amphotericin B (5 μg/ml) in a humidified atmosphere of 5% CO2 at 37° C. until confluent. The cells were dissociated with TPVG solution (0.2% trypsin, 0.02% EDTA, 0.05% glucose in PBS). The stock cultures were grown in 25 cm^2 culture flasks and all experiments were carried out in 96 well microtitre plates (Tarsons India Pvt. Ltd., Kolkata, India).
HepG2 cells were trypsinized from stock culture flasks and the cell count was adjusted to 1.0×10^5cells/ml, the cell suspension was seeded into a 96-well plate. After 24 hr, cell cultures with 70-80% confluency, cells were treated with different non-toxic concentrations of test substances. After 24 hr of treatment, the plate was washed with phosphate buffer saline. The cellular ATP levels determination was performed according to the instruction given in the kit manual (BioVision, #K354-100). At the end of the experiment, the optical density was read at 570 nm using microplate reader. From the absorbance values, the cellular ATP levels were estimated using kit protocol and the concentration of cellular ATP levels in treated groups were determined in comparison to the control groups.

A further data set deals with HepG2 cell line. Nature of the data set: In vitro cytotoxicity by MTT assay on HepG2 cell line. Particulars: Homo sapiens, concentration needed to inhibit growth of the cell by 50%, 24 h, read-out: CTC50. Type of data set: cell-based, human. The protocol: (§3) The in vitro cytotoxicity was performed on HepG2 (Human Hepatocellular Carcinoma) cell line to find the non-toxic concentrations of the test substances by MTT assay and evaluate their modulatory potential on cellular ATP levels
as §1, §2
(§4) The monolayer cell culture was trypsinized and the cell count was adjusted to 1.0×10^5cells/ml using DMEM-HG containing 10% FBS. To each well of the 96 well microtitre plate, 0.1 ml of the diluted cell suspension was added. After 24 h, when a partial monolayer was formed, the supernatant was flicked off, the monolayer was washed once with medium and 100 μl of different concentrations of test substances were added. The plate was then incubated at 37° C. for 24 h in a 5% CO2 atmosphere, and microscopic examination was carried out and observations were noted after 24 h time.
(§5) After 24 h of incubation, the drug solutions in the wells were discarded and 50 μl of MTT in DPBS was added to each well. The plate was gently shaken and incubated for 3 h at 37° C. in a 5% CO2 atmosphere. The supernatant was removed and 100 μl of 2-propanol was added and the plate was gently shaken to solubilize the formed formazan. The absorbance was measured using a microplate reader at a wavelength of 570 nm. The percentage growth inhibition was calculated using the standard formula. The concentration of test substances, needed to inhibit the growth of the cell by 50% i.e., CTC50 values were generated from the dose-response curves
On the technique in general: Formazan colour is commonly taken as a measure of viable cells.

Test in data set [1]: as above
The class given is cell-based, human. As to conditions: human, HepG2 cells; for cytotoxicity at 24 h, 62.5 μg/mL: Test Conc. 62.5 μg/mL; for cytotoxicity at 24 h, 125 μg/mL: Test Conc. 125 μg/mL; for cytotoxicity at 24 h, 250 μg/mL: Test Conc. 250 μg/mL; for cytotoxicity at 24 h, 500 μg/mL: Test Conc. 500 μg/mL; for cytotoxicity at 24 h, 1000 μg/mL: Test Conc. 1000 μg/mL; for cytotoxicity at 24 h, 2000 μg/mL: Test Conc. 2000 μg/mL; for cytotoxicity at 24 h, 3000 μg/mL: Test Conc. 3000 μg/mL; for cytotoxicity at 24 h, 4000 μg/mL: Test Conc. 4000 μg/mL; for cytotoxicity at 24 h, 5000 μg/mL: Test Conc. 5000 μg/mL. The protocol: as §3, §1, §2, §4, §5

The test system of data set [2] is Patients with hepatic encephalopathy (HE). Particulars: patients with hepatic encephalopathy treated with ALCAR; cited from earlier work.
In a further data set the test system is MS-related fatigue. As to conditions: treatment of MS-related fatigue; cited from earlier work.
The conditions of data set [3]: cited from earlier work.
The next data set concerns erythrocytes. As to conditions: humans; after 24 h of continuous infusion; dose-dependent; cited from earlier work.
For data set [4] the following is noted: cited from earlier work. The source holds these as a separate data set.

These results are taken from patent US12208077B2, “Synergistic composition for potentiating stabilized ATP” (CELAGENEX RESEARCH (INDIA) PVT. LTD., priority 2021, dated 2025).

Consider `OO` [Composition H2O2, H2O2, reference compound], for which, in the data set with HepG2 cells, the “Cellular ATP” value was 22.35 ± 0.48 nM and the “Percentage enhancement of cellular ATP levels over cell control” value (shortened to “Percentage enhancement”) is −38.40%.

As for `CC(=O)NCCS(=O)(=O)O` [Magnesium Acetyl Taurate, magnesium; 2-acetamidoethanesulfonate; dihydrate], the IC50 in the data set with HepG2 cell line was over 5000 µg/mL. In data set [1], this molecule displayed a cytotoxicity at 24 h, 62.5 μg/mL of 1.31 ± 0.231%; a cytotoxicity at 24 h, 125 μg/mL of 1.25 ± 0.91%; a cytotoxicity at 24 h, 250 μg/mL of 1.75 ± 0.43%; a cytotoxicity at 24 h, 500 μg/mL of 1.53 ± 0.408%. In data set [1], this molecule returned a cytotoxicity at 24 h, 1000 μg/mL of 1.36 ± 0.967%; a cytotoxicity at 24 h, 2000 μg/mL of 6.55 ± 0.482%; a cytotoxicity at 24 h, 3000 μg/mL of 3.71 ± 1.34%; a cytotoxicity at 24 h, 4000 μg/mL of 6.17 ± 2.39%. In data set [1], the cytotoxicity at 24 h, 5000 μg/mL came out at 12.2 ± 1.56%. Further, in the data set on HepG2 cells, the “Cellular ATP” value is 56.28 ± 0.56 nM and the “Percentage enhancement” value was 55.07%.

With `CC(=O)O[C@H](CC(=O)O)C[N+](C)(C)C` [N-Acetyl L carnitine, (3R)-3-acetyloxy-4-(trimethylazaniumyl) butanoate], in the data set with HepG2 cell line, the IC50 was over 5000 µg/mL. Also, in data set [1], the cytotoxicity at 24 h, 62.5 μg/mL came to 0.982 ± 0.876%; the cytotoxicity at 24 h, 125 μg/mL amounted to 0.546 ± 0.408%; the cytotoxicity at 24 h, 250 μg/mL is 1.31 ± 0.134%; the cytotoxicity at 24 h, 500 μg/mL came out at 1.69 ± 0.204%. In data set [1], this molecule gave a cytotoxicity at 24 h, 1000 μg/mL of 2.46 ± 1.58%; a cytotoxicity at 24 h, 2000 μg/mL of 2.62 ± 0.964%; a cytotoxicity at 24 h, 3000 μg/mL of 3 ± 0.736%; a cytotoxicity at 24 h, 4000 μg/mL of 5.18 ± 2.68%. Further, the cytotoxicity at 24 h, 5000 μg/mL in data set [1] was determined as 32.6 ± 2.55%. For the same molecule, in the data set on HepG2 cells, the “Cellular ATP” value is 39.92 ± 0.45 nM and the “Percentage enhancement” value is 10.00%. Further, in data set [2], the physical activity entry is listed as “increase”; the “severity of mental and physical fatigue” value is “decrease”. The “efficacy compared with amantadine” value in the data set on MS-related fatigue is reported as “more effective”.

In the case of `Nc1ncnc2c1ncn2[C@@H]1O[C@H](COP(=O)(O)OP(=O)(O)OP(=O)(O)O)[C@@H](O)[C@H]1O` [ATP, Adenosine triphosphate], the “stability in acidic conditions” value in data set [3] is on record as “quickly decompose”. In addition, in the data set with HepG2 cells, the “Cellular ATP” value is recorded as 119.88 ± 0.45 nM and the “Percentage enhancement” value was 230.33%. The “increase of ATP concentrations in erythrocytes” value with erythrocytes is reported as about 60%. For the same molecule, the “half-life of infused ATP” value in data set [4] was “less than one”.
